The target in one series is T1, hr PPARg ag (Homo sapiens, UniProt P37231).
T1 sequence (P37231 1-505): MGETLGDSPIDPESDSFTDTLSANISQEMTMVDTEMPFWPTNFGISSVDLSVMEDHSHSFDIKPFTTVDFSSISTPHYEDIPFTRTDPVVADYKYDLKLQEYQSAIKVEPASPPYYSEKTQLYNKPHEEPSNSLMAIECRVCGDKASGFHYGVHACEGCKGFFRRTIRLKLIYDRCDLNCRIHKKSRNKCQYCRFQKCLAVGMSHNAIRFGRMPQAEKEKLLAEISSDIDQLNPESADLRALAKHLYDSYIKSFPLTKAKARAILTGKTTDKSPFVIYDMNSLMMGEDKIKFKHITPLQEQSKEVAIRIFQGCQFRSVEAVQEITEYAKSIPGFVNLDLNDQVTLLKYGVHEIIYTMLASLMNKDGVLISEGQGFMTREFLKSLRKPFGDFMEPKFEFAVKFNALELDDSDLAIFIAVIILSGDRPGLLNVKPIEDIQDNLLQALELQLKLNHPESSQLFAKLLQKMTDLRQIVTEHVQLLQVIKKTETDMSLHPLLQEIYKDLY
The series is described as follows: receptor profile (Table S4). It counts as biochemical.

The target of the next series is T2, hr M1 (Homo sapiens, UniProt P11229).
T2 sequence (P11229 1-460): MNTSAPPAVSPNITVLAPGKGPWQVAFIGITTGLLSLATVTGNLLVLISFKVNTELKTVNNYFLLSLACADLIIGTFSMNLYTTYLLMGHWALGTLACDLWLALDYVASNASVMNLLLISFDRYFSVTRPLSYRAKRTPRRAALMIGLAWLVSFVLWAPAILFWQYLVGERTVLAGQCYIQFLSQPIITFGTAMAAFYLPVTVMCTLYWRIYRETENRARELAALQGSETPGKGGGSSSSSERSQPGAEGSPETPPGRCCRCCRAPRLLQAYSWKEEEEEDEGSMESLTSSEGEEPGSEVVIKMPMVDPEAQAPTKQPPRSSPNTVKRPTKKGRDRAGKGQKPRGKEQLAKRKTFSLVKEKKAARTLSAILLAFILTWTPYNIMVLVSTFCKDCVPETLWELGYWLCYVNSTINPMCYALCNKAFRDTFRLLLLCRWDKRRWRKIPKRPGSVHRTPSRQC
The series can be described thus: receptor profile (Table S4). The series is classed as binding.

Another series has as its target hr DAT (Homo sapiens, UniProt Q01959). The series can be described thus: receptor profile (Table S4). The series is classed as binding.
In another series the target is rVMAT2 uptake (Rattus norvegicus, UniProt Q01827). The series can be described thus: receptor profile (Table S4). It counts as biochemical.
rVMAT2 uptake, sequence (Q01827 whole entry): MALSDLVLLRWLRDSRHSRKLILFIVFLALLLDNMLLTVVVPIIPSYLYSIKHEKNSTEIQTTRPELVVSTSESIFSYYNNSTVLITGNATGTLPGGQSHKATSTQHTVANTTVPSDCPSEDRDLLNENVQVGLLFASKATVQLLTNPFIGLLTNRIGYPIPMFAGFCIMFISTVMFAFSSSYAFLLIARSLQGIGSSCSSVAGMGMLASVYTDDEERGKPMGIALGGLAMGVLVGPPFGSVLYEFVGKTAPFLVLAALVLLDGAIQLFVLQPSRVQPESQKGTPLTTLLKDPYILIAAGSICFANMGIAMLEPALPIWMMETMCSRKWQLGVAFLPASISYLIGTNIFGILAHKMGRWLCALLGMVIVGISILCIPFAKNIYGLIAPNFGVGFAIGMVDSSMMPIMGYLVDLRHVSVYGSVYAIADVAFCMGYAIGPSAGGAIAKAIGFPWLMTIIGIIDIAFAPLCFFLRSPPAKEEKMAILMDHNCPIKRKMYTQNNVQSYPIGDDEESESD
The next series addresses T3, hr PR ag (Homo sapiens, UniProt P06401).
T3 sequence (P06401 1-933): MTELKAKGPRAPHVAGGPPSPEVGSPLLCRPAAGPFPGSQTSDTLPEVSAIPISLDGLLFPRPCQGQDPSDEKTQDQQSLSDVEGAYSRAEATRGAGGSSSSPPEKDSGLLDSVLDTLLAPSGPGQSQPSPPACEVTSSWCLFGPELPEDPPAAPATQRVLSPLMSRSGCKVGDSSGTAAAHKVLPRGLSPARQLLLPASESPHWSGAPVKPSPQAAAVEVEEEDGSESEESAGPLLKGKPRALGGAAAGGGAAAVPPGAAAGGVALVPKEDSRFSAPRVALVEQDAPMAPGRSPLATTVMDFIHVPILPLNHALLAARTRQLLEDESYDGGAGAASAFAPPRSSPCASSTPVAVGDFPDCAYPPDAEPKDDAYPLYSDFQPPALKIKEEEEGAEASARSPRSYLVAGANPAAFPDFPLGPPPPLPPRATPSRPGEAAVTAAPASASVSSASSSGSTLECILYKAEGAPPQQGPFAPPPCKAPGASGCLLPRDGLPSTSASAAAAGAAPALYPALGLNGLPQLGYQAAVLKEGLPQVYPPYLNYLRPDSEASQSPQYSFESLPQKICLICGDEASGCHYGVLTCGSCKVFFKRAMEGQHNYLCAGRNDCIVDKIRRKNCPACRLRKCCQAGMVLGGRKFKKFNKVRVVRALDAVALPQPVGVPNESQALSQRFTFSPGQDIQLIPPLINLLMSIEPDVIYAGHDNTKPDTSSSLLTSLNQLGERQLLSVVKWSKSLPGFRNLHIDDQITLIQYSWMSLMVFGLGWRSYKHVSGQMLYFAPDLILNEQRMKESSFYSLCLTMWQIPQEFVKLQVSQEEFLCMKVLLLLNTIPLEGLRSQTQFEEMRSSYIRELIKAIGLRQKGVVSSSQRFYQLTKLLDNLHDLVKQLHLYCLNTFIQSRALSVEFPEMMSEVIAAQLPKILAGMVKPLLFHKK
The series is described as follows: receptor profile (Table S4). The series is classed as biochemical.

The target of the next series is T4, hr Al1A antag (Homo sapiens, UniProt P35348).
T4 sequence (P35348 1-466): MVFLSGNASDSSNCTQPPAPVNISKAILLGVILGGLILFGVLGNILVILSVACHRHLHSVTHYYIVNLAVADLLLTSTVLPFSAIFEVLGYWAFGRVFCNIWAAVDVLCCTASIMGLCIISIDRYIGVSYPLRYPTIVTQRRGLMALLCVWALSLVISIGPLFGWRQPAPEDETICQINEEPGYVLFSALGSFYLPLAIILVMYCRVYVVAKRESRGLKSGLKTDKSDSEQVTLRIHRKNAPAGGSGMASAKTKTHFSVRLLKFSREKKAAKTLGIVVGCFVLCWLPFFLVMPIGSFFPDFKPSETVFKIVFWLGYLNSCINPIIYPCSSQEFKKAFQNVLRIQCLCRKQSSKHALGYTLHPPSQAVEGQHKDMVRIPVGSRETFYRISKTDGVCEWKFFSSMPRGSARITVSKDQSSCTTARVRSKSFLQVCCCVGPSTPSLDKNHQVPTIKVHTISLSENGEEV
The series is described as follows: receptor profile (Table S4). The series is classed as biochemical.

Series [1] in a line: high-throughput solubility pH 6.8. The series is classed as physicochemical. Conditions: high-throughput assay format, read-out: HT sol. pH 6.8.
Another series has as its target hr PXR ag (Homo sapiens, UniProt O75469). The series is described as follows: receptor profile (Table S4). Conditions: hr PXR ag.
The target in another series is PXR (Homo sapiens, UniProt O75469). The series can be described thus: receptor profile (Table S4). As to conditions: human.
PXR, sequence (O75469 whole entry): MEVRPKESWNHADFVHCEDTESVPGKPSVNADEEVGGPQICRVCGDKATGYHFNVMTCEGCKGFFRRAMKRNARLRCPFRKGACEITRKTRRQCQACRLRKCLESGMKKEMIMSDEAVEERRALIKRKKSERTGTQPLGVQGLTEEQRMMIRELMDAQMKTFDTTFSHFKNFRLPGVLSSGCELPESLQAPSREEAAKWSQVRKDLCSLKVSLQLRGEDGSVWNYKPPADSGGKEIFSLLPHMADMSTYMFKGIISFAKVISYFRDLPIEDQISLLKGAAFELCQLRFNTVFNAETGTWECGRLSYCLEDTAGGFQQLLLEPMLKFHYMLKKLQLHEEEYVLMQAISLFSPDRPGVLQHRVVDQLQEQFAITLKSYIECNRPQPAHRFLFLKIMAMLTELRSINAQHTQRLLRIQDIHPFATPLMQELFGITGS

The text below walks through data of PMC7549094 (Journal of Medicinal Chemistry, 2020).

≈ marks a conversion by molar mass, not a printed value. Like-named read-outs stand apart in the source and are kept apart here.

hr DAT, sequence (Q01959 whole entry): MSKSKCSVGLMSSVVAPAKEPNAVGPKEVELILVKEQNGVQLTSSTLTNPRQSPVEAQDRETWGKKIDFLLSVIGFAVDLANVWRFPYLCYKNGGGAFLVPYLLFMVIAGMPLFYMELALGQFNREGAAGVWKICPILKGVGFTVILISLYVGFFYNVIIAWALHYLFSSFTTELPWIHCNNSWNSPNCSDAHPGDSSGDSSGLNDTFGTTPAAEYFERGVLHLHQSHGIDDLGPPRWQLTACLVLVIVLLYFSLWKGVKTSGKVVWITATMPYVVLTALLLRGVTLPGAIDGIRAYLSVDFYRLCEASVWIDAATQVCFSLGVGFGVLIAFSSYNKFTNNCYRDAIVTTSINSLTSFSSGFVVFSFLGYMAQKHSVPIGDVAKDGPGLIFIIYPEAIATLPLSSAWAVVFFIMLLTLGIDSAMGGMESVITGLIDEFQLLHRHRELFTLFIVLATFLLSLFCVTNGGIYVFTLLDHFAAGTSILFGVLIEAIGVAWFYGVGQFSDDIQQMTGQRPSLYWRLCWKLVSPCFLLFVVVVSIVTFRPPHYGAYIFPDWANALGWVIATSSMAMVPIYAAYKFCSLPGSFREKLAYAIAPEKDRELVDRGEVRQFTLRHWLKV
hr PXR ag, sequence (O75469 whole entry): as the sequence (O75469 whole entry) above

Regarding `Cc1nc(C)c(C(=O)Nc2ccc(F)c(-c3nc4ncc(-c5ncccc5C)cn4n3)c2)o1` [compound 1, N-(4-Fluoro-3-(6-(3-methylpyridin-2-yl)-[1,2,4]triazolo[1,5-a]pyrimidin-2-yl)phenyl)-2,4-dimethyloxazole-5-carboxamide], the EC50/IC50 at hr PPARg ag (hr PPARg ag) is recorded as more than 30 µM; on hr M1 (hr M1) it was more than 30 µM; at hr DAT (hr DAT), more than 30 µM; at rVMAT2 uptake (rVMAT2 uptake), 3.9 µM; on hr PR ag (hr PR ag), more than 30 µM; at hr Al1A antag (hr Al1A antag) it was more than 30 µM. The compound further gave an EC50/IC50 on hr PXR ag of more than 30 µM. Besides, the inhibition at 10 µM at hr PPARg ag (read-out: % inh/act @ 10 µM) is 4%; on hr M1 (read-out: % inh/act @ 10 µM), 25%; at hr DAT (read-out: % inh/act @ 10 µM) it was 17%; at rVMAT2 uptake (read-out: % inh/act @ 10 µM) it was 64%; on rVMAT2 uptake (read-out: VMAT2 inhibition), 61%; on hr PR ag (read-out: % inh/act @ 10 µM), -2%. Further, the inhibition at 10 µM was -4% on hr Al1A antag (read-out: % inh/act @ 10 µM) and 0% at PXR. For the same compound, the inhibition at 30 µM amounted to 5% on hr PPARg ag (read-out: % inh/act @ 30 µM); 26% at hr M1 (read-out: % inh/act @ 30 µM); 22% at hr DAT (read-out: % inh/act @ 30 µM); 78% at rVMAT2 uptake (read-out: % inh/act @ 30 µM); 0% on hr PR ag (read-out: % inh/act @ 30 µM); 8% on hr Al1A antag (read-out: % inh/act @ 30 µM). The solubility kinetic in series [1] stood at 17 µM (≈ 7.54 µg/mL).
